# Reference: patent publication US10537565B2, “Solid forms of N-[2,4-bis(1,1-dimethylethyl)-5-hydroxyphenyl]-1,4-dihydro-4-oxoquinoline-3-carboxamide” (Vertex Pharmaceuticals Incorporated, priority 2005, dated 2020)
# Key:
# Solubility in FaSSIF = format: physicochemical
# [1] = Bioavailability (PK) of solid state forms of Compound 1 in rat, oral dosing compared to IV solution; details: in vivo
# Method: Bioavailability of crystalline Form B, 85% amorphous Compound 1 and HPMCAS solid dispersion of Compound 1 were evaluated in rat, the results of which are provided in Table 4 below. These forms of the compound were dosed in an oral suspension with a vehicle containing 0.5% methyl cellulose/0.5% SLS/99% water. Bioavailability of various solid forms was evaluated as compared to a multicomponent IV solution of Compound 1. Bioavailability of crystalline […] was 3-6%, compared to 61-95% for amorphous material and 109-111% for solid dispersion.
Structure (SMILES),solubility (Solubility in FaSSIF; listed as 85% amorphous material) [µg/mL],bioavailability ([1]; po),"% F ([1]; po, 50 mg/kg) [%]","AUC ([1]; po, 50 mg/kg) [µg·h/mL]","Tmax ([1]; po, 50 mg/kg) [h]","% F ([1]; po, 200 mg/kg) [%]","AUC ([1]; po, 200 mg/kg) [µg·h/mL]","Tmax ([1]; po, 200 mg/kg) [h]",solubility (Solubility in FaSSIF; listed as crystalline polymorph B) [µg/mL],"bioavailability ([1]; 50 mg/kg, % F) [%]","bioavailability ([1]; 200 mg/kg, % F) [%]","Tmax ([1]; po, 50 mg/kg, Tmax) [h]"
"CC(C)(C)c1cc(C(C)(C)C)c(NC(=O)c2c[nH]c3ccccc3c2=O)cc1O [85% Amorphous, N-[2,4-bis(1,1-dimethylethyl)-5-hydroxyphenyl]-1,4-dihydro-4-oxoquinoline-3-carboxamide]",67.4,61-95%,95.0,135.5,6.0,61.0,371.9,6.0,–,–,–,–
"CC(C)(C)c1cc(C(C)(C)C)c(NC(=O)c2c[nH]c3ccccc3c2=O)cc1O [Crystalline, N-[2,4-bis(1,1-dimethylethyl)-5-hydroxyphenyl]-1,4-dihydro-4-oxoquinoline-3-carboxamide]",–,–,5.5,–,4.0,3.1,–,–,1.0,74,67,5.5
